27 compounds from article PMC10132805 (Nature Communications, 2023) can be followed below.

For orientation: Kd means a measure of binding affinity in units of concentration. Low values mean a tighter complex, high ones a looser complex.

Entries after “also recorded” stand apart in the source; their conditions may differ. Read-outs that look alike come from different tables or passages of the source. Residues, ends and D or L forms follow the SMILES beside them. No end group written: not given here. *: point of attachment. FITC = O=C1OC2(c3ccc(O)cc3Oc3cc(O)ccc32)c2ccc(NC(=S)*)cc21

What all share (format): binding
One experiment addresses NEDD4 WW2 (Homo sapiens, UniProt P46934). In words: biochemical.
The next experiment addresses NEDD4 WW4 (Homo sapiens, UniProt P46934). In words: biochemical.
A further experiment deals with PABPC1 PABC (Homo sapiens, UniProt P11940). In words: biochemical.
For a further experiment, the target named is CEP55 EABR (Homo sapiens, UniProt Q53EZ4). As to the kind of experiment: biochemical. The conditions noted are these: for KD: pH 7.5.
A further experiment deals with CLTC NTD (Homo sapiens, UniProt Q00610). As to the kind of experiment: biochemical.
Experiment [1] concerns 139 human bait protein domains. The conditions noted are these: for specificity / RiboVD_mean_counts / RiboVD_count_proportions / peptide_counts_proportion: bait YAP1 WW-2 (P46937, 228-266); for RiboVD_mean_counts: mean sequencing counts over replicate selections; for RiboVD_count_proportions: proportion of counts; for motif_found: motif benchmarking set.
A further experiment deals with AP2M1 MHD (Homo sapiens, UniProt Q96CW1). In words: biochemical.
In the next experiment the target is ALIX V (Homo sapiens, UniProt Q8WUM4). As to the kind of experiment: biochemical.
The mark [2] stands for this setting: replicate 1 (first entry of cell).
Setting [3] is: replicate 2 (second entry of cell).
Where [4] appears, read: replicate 3 (third entry of cell).

CLTC NTD, sequence (Q00610 2-479 limits assumed): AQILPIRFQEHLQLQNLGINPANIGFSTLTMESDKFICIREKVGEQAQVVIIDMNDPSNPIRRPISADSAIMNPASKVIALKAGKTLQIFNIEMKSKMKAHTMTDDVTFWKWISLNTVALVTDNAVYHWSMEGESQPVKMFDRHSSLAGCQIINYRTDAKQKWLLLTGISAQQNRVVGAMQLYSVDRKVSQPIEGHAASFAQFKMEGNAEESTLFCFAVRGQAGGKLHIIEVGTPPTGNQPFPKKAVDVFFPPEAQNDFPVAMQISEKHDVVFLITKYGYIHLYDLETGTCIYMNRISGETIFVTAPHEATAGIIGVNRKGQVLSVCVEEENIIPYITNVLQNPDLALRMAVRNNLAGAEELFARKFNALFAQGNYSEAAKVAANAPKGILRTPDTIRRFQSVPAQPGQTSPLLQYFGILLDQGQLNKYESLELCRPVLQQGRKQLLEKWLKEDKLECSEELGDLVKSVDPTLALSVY
PABPC1 PABC, sequence (P11940 542-619 limits assumed): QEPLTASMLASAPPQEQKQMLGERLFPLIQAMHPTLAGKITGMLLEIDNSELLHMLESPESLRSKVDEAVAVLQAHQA
CEP55 EABR, sequence (Q53EZ4 160-214 limits assumed): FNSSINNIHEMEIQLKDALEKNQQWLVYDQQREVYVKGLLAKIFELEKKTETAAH
NEDD4 WW4, sequence (P46934 892-925 limits assumed): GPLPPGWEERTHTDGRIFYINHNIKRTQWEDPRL
NEDD4 WW2, sequence (P46934 767-800 limits assumed): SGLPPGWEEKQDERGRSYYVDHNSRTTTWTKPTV
ALIX V, sequence (Q8WUM4 360-702): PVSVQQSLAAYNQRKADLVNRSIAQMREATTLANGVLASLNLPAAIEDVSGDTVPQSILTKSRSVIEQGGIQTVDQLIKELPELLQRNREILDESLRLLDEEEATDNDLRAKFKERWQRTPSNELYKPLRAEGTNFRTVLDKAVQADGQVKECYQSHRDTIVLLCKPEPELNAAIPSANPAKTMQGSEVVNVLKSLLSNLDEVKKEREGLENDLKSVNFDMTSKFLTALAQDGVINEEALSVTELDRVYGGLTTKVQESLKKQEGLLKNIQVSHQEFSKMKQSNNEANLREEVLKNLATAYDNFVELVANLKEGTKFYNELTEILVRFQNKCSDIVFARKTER
AP2M1 MHD, sequence (Q96CW1 170-434 limits assumed): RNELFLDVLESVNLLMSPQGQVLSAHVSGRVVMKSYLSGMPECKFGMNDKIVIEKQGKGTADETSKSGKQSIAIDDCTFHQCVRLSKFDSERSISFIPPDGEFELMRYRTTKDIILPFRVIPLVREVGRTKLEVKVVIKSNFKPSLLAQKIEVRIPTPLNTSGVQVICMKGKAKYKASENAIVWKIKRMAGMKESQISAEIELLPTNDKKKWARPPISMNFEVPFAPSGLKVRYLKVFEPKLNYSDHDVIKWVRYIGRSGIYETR

Turning to `C[C@H](NC(=O)[C@H](CO)NC(=O)[C@H](Cc1ccc(O)cc1)NC(=O)[C@@H]1CCCN1C(=O)[C@@H]1CCCN1C(=O)[C@@H]1CCCN1C(=O)[C@H](CO)NC(=O)[C@H](CC(=O)O)NC(=O)[C@@H](NC(=S)Nc1ccc2c(c1)C(=O)OC21c2ccc(O)cc2Oc2cc(O)ccc21)[C@@H](C)O)C(=O)NCC(=O)O` [FITC - UL56 46-55 (HHV2)] ({FITC}-TDSPPPYSAG-OH), the figures for the Kd at NEDD4 WW2 and at NEDD4 WW4 were 16 µM and 82 µM, respectively.

On to `CC(C)C[C@H](NC(=O)CNC(=O)[C@H](C)NC(=O)[C@@H](N)CO)C(=O)N[C@@H](CC(N)=O)C(=O)N1CCC[C@H]1C(=O)N[C@@H](C)C(=O)N[C@@H](C)C(=O)N[C@H](C(=O)N1CCC[C@H]1C(=O)N[C@@H](Cc1ccccc1)C(=O)N[C@H](C(=O)N1CCC[C@H]1C(=O)N[C@@H](CCCCN)C(=O)N[C@@H](CC(N)=O)C(=O)N[C@@H](CCC(N)=O)C(=O)N[C@@H](Cc1ccc(O)cc1)C(=O)O)C(C)C)C(C)C` [P/V/C 183-198 (HeV)], for which, at PABPC1 PABC, the “affinity compared to the peptide from the endogenous PABP inhibitor PAIP2_108-123” value is “ten-fold weaker”.

Turning to “LAVGPPSLNYIPPVLQ [TEX14 792-807 (Human)]”, at CEP55 EABR, the Kd is ~0.3 µM and the KD result was “same order or tighter as the probe; also recorded: Due to the limitatons of our experimental setup we could not calculate the KD values for this peptide, however our experiments suggest very high affinity (mid to low nanomolar)”. On PABPC1 PABC, `CC(C)C[C@H](NC(=O)[C@H](CC(N)=O)NC(=O)[C@H](CO)NC(=O)[C@H](CCCCN)NC(=S)Nc1ccc2c(c1)C(=O)OC21c2ccc(O)cc2Oc2cc(O)ccc21)C(=O)N[C@@H](CC(N)=O)C(=O)N1CCC[C@H]1C(=O)N[C@@H](CC(N)=O)C(=O)N[C@@H](C)C(=O)N[C@@H](CCCCN)C(=O)N[C@@H](CCC(=O)O)C(=O)N[C@@H](Cc1ccccc1)C(=O)N[C@H](C(=O)N1CCC[C@H]1C(=O)NCC(=O)N[C@H](C(=O)N[C@@H](CCCCN)C(=O)O)C(C)C)C(C)C` [FITC - PAIP2 108-123 (Human), reference compound] ({FITC}-KSNLNPNAKEFVPGVK-OH) yielded a Kd of 0.38 µM.

Regarding `CC[C@H](C)[C@H](NC(=O)[C@H](CC(C)C)NC(=O)[C@H](CC(N)=O)NC(=O)[C@@H](NC(=O)[C@H](CC(=O)O)NC(=S)Nc1ccc2c(c1)C(=O)OC21c2ccc(O)cc2Oc2cc(O)ccc21)[C@@H](C)O)C(=O)N[C@@H](CCC(=O)O)C(=O)N[C@@H](Cc1ccccc1)C(=O)N[C@@H](CC(=O)O)C(=O)N[C@H](C(=O)N[C@@H](CC(N)=O)C(=O)O)[C@@H](C)O` [FITC - ARRB2 370-379 (Human)] ({FITC}-DTNLIEFDTN-OH), binding at CLTC NTD was put at a Kd of 26 µM. Take NSMLNPNAVPFQPSPQY [N 2-17 (BeV)]: on PABPC1 PABC, the “affinity compared to the peptide from the endogenous PABP inhibitor PAIP2_108-123” value was “ten-fold weaker”.

For the compound VTVPTAPPAYADIGYP, in experiment [1], the specificity amounted to 0.918, the RiboVD_mean_counts is 10451.3 and the RiboVD_count_proportions was determined as 0.1499. In experiment [1] (setting [2]), the peptide_counts_proportion was found to be 0.298. Moreover, the peptide_counts_proportion in experiment [1] (setting [3]) was 0.131. In addition, the peptide_counts_proportion in experiment [1] (setting [4]) was 0.021. MSFGSF [P03317_1835_1840]: the motif_found result in experiment [1] (bait G3BP2_NTF2_1_Q9UN86_1_139) was “TRUE”. Consider “PTDSNFYRALMDEEDM [EGFR 992-1007 (Human)]”, for which binding at AP2M1 MHD was characterised by a dissociation constant (Kd) of 2.4 µM. As to “QAQGPPYPTYPGYPGY [PDCD6IP 797-812 (Human)]”, on CEP55 EABR, the dissociation constant (Kd) was ~0.3 µM and the KD entry is recorded as “same order or tighter as the probe; also recorded: Due to the limitatons of our experimental setup we could not calculate the KD values for this peptide, however our experiments suggest very high affinity (mid to low nanomolar)”. AELNPPPYNHSYESLH: in experiment [1], the specificity is 0.98, the RiboVD_mean_counts was determined as 1834 and the RiboVD_count_proportions was 0.03738. In experiment [1] (setting [2]), the peptide_counts_proportion is given as 0.005. Also, the peptide_counts_proportion in experiment [1] (setting [3]) was determined as 0.079. Also, in experiment [1] (setting [4]), the peptide_counts_proportion is on record as 0.028. On ALIX V, PPPVLYPNLAELENYM [SDCBP2 39-54 (Human)] yielded a Kd of 2.1 µM. As to P36328_1787_1804, the motif_found entry in experiment [1] (bait CD2AP_SH3_1_Q9Y5K6_2_58) is on record as “TRUE”.

Take `CC(C)C[C@H](NC(=O)[C@H](CO)NC(=O)[C@@H](NC(=O)[C@H](CC(C)C)NC(=O)[C@@H]1CCCN1C(=O)[C@@H]1CCCN1C(=O)[C@H](Cc1ccc(O)cc1)NC(=O)[C@H](CC(C)C)NC(=O)[C@H](CO)NC(=S)Nc1ccc2c(c1)C(=O)OC21c2ccc(O)cc2Oc2cc(O)ccc21)[C@@H](C)O)C(=O)N[C@@H](CCCNC(=N)N)C(=O)O` [FITC - gag 493-502 (HIV1)] ({FITC}-SLYPPLTSLR-OH): at ALIX V, binding was characterised by a dissociation constant (Kd) of 2.6 µM.

For `CC(C)[C@H](NC(=O)[C@H](C)NC(=O)[C@@H](N)[C@@H](C)O)C(=O)N[C@@H](C)C(=O)N1CCC[C@H]1C(=O)N1CCC[C@H]1C(=O)N[C@@H](C)C(=O)N1CCC[C@H]1C(=O)N[C@H](C(=O)N[C@@H](Cc1ccc(O)cc1)C(=O)N[C@@H](CCCNC(=N)N)C(=O)N[C@@H](CO)C(=O)N[C@@H](C)C(=O)N[C@@H](CCC(=O)O)C(=O)N[C@@H](C)C(=O)N[C@@H](Cc1c[nH]cn1)C(=O)O)C(C)C` [NP 602-617 (REBOV)], the equilibrium dissociation constant (Kd) on CEP55 EABR is 2.18 µM. Take PVPAPRKPTPAPRTAFR [P08411_1764_1780]: the motif_found entry in experiment [1] (bait CD2AP_SH3_1_Q9Y5K6_2_58) is “TRUE”. For the compound “EPDQEPPPPYQEQVPVPVYHPTPSQ [RNF11 31-65 (Human)]”, the Kd on NEDD4 WW2 is 15 µM; on NEDD4 WW4 it was 35 µM. In the case of “GLRRTDLVDFVNGTVDY [RdRp 1840-1855 (SVV)]”, the KD result on CLTC NTD (pH 7.5) is given as “Low affinity binder”. “VDEEKGLYPNLKLTEPTAPMIHNYM [Nsp4 118-142 (BAV)]” returned a Kd at ALIX V of 160 µM. For the compound LPPPEYVPLHEISSKG, in experiment [1], the specificity amounted to 0.991, the RiboVD_mean_counts was found to be 729 and the RiboVD_count_proportions worked out at 0.02141. In addition, the peptide_counts_proportion in experiment [1] (setting [2]) worked out at 0.029. In experiment [1] (setting [3]), this compound gave a peptide_counts_proportion of 0.006. This compound also came in with a peptide_counts_proportion in experiment [1] (setting [4]) of 0.029. In the case of EPDQEPPPPYQEQVPV [RNF11 31-56 (Human)], the Kd at NEDD4 WW2 came to 13 µM; on NEDD4 WW4, 44 µM. Take “VPVDTNLIEFDTNYAT [ARRB2 367-382 (Human)]”: the Kd at CLTC NTD was 40 µM. Consider `C[C@H](NC(=O)[C@H](CCC(N)=O)NC(=S)Nc1ccc2c(c1)C(=O)OC21c2ccc(O)cc2Oc2cc(O)ccc21)C(=O)N[C@@H](CCC(N)=O)C(=O)NCC(=O)N1CCC[C@H]1C(=O)N1CCC[C@H]1C(=O)N[C@@H](Cc1ccc(O)cc1)C(=O)N1CCC[C@H]1C(=O)N[C@H](C(=O)N[C@@H](Cc1ccc(O)cc1)C(=O)N1CCC[C@H]1C(=O)NCC(=O)N[C@@H](Cc1ccc(O)cc1)C(=O)O)[C@@H](C)O` [FITC - PDCD6IP 797-809 (Human)] ({FITC}-QAQGPPYPTYPGY-OH), for which, on CEP55 EABR, the Kd stood at 0.31 µM. Compound MSSLYPSLEDLKVDQA [SDCBP2 1-16 (Human)] displayed a Kd on ALIX V of 0.29 µM. As to `CC(C)C[C@H](NC(=O)[C@H](C)NC(=O)[C@@H]1CCCN1C(=O)[C@@H]1CCCN1C(=O)CNC(=O)[C@H](CO)NC(=O)[C@H](C)NC(=O)[C@@H](N)[C@@H](C)O)C(=O)N[C@@H](CCC(=O)O)C(=O)N[C@@H](Cc1c[nH]c2ccccc12)C(=O)N[C@@H](CO)C(=O)N[C@@H](C)C(=O)N[C@H](C(=O)N[C@@H](CC(N)=O)C(=O)N[C@@H](CCC(=O)O)C(=O)N[C@@H](CCCCN)C(=O)O)[C@@H](C)O` [P 177-192 (RABV)], the affinity on CEP55 EABR, expressed as Kd, was 22.3 µM. As to TAPPAYADIGYPMSML, the specificity in experiment [1] was determined as 0.889. Moreover, the RiboVD_mean_counts in experiment [1] is listed as 4550. The same compound showed a RiboVD_count_proportions in experiment [1] of 0.1419. In addition, the peptide_counts_proportion in experiment [1] (setting [2]) is on record as 0.002; in experiment [1] (setting [3]) it was 0.008; in experiment [1] (setting [4]), 0.416. For the compound `CC[C@H](C)[C@H](NC(=O)[C@H](CC(=O)O)NC(=O)[C@H](C)NC(=O)[C@H](Cc1ccc(O)cc1)NC(=O)[C@H](C)NC(=O)[C@@H]1CCCN1C(=O)[C@@H]1CCCN1C(=O)[C@H](C)NC(=O)[C@@H](NC(=O)[C@@H]1CCCN1C(=O)[C@@H](NC(=O)[C@@H](NC(=O)[C@@H](NC(=O)[C@H](CCCNC(=N)N)NC(=O)[C@H](CCCNC(=N)N)NC(=O)[C@@H](N)CCSC)C(C)C)[C@@H](C)O)C(C)C)[C@@H](C)O)C(=O)NCC(=O)N[C@@H](Cc1ccc(O)cc1)C(=O)N1CCC[C@H]1C(=O)N[C@@H](CCSC)C(=O)O` [VP40 1-20 (SEBOV)], the Kd at NEDD4 WW2 amounted to 22 µM; on NEDD4 WW4 it was 68 µM.
